Results from BindingDB's records for doi:10.1021/jm070654j (University of Zurich, 2008).
pIC50: −log10 of the molar value.

Biological target: Cyclin-dependent kinase 1 (Homo sapiens, UniProt P06493)
Assay: Inhibition of CDK1

Cyclin-dependent kinase 1, sequence (P06493 whole entry): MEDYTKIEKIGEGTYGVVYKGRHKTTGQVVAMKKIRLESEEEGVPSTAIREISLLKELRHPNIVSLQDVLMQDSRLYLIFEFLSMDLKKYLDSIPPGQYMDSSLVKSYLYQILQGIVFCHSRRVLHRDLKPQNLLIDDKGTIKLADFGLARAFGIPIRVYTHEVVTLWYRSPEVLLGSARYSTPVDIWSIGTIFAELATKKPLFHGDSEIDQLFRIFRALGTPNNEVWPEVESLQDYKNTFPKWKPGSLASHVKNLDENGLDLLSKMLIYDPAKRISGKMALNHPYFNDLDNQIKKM

pIC50	Compound
< 6.00	Cc1cc(Cl)cc2c1NC(=O)C2C=Nc1ccc(S(N)(=O)=O)cc1 (stereo not drawn)
< 6.00	Cc1cccc2c1NC(=O)C2C=Nc1ccc(S(N)(=O)=O)cc1 (stereo not drawn)
< 6.00	Cc1cc(C)c2c(c1)C(C=Nc1ccc(S(N)(=O)=O)cc1)C(=O)N2 (stereo not drawn)
